Data: patent publication US9346815B2, “5-chloro-2-difluoromethoxyphenyl pyrazolopyrimidine compounds, compositions and methods of use thereof” (Genentech, Inc., priority 2014, dated 2016)

Experiments:
[1] = target: isolated recombinant JAK1 kinase domain (Homo sapiens (Human), UniProt P23458); experiment: JAK1 enzyme assay (Caliper LabChip, peptide phosphorylation); assay type: biochemical; conditions: isolated recombinant JAK1 kinase domain, 25 μM ATP
[2] = tested on: JAK1-dependent STAT6 phosphorylation downstream of IL-13 stimulation in TF-1 human erythroleukemia cells; experiment: JAK1 pathway assay in TF-1 cells (IL-13-pSTAT6, MSD); assay type: cell-based; conditions: Homo sapiens, TF-1, TF-1 cells, read-out: IL13-pSTAT6 EC50_TF-1
Description: JAK1 Pathway Assay in Cell Lines was Carried Out as Follows:
Inhibitor potency (EC50) was determined in cell-based assays designed to measure JAK1 dependent STAT phosphorylation.
In one assay approach, TF-1 human erythroleukemia cells obtained from the American Type Culture Collection (ATCC; Manassas, Va.) were used to measure JAK1-dependent STAT6 phosphorylation downstream of IL-13 stimulation. Prior to use in the assays, TF-1 cells were starved of GM-CSF overnight in OptiMEM medium (Life Technologies, Grand Island, N.Y.) supplemented with 0.5% charcoal/dextran stripped fetal bovine serum (FBS), 0.1 mM non-essential amino acids (NEAA), and 1 mM sodium pyruvate. The assays were run in 384-well plates in serum-free OptiMEM medium using 300,000 cells per well. In a second assay approach, BEAS-2B human bronchial epithelial cells obtained from ATCC were plated at 100,000 cells per well of a 96-well plate one day prior to the experiment. The BEAS-2B assay was run in complete growth medium (bronchial epithelial basal medium plus bulletkit; Lonza; Basel, Switzerland).
Test compounds were serially diluted 1:2 in DMSO and then diluted 1:50 in medium just before use. Diluted compounds were added to the cells, for a final DMSO concentration of 0.2%, and incubated for 30 min (for the TF-1 assay) or 1 hr (for the BEAS-2B assay) at 37° C. Then, cells were stimulated with human recombinant cytokine at their respective EC90 concentrations, as previously determined for each individual lot. Cells were stimulated with IL-13 (R&D Systems, Minneapolis, Minn.) for 15 min at 37° C. The TF-1 cell reactions were stopped by the direct addition of 10× lysis buffer (Cell Signaling Technologies, Danvers, Mass.), whereas the BEAS-2B cell incubations were halted by the removal of medium and addition of 1× lysis buffer. The resultant samples were frozen in the plates at −80° C. Compound mediated inhibition of STAT6 phosphorylation was measured in the cell lysates using MesoScale Discovery (MSD) technology (Gaithersburg, Md.).

[3] = target: isolated recombinant JAK2 kinase domain (Homo sapiens (Human), UniProt O60674); experiment: JAK2 enzyme assay (Caliper LabChip, peptide phosphorylation); assay type: biochemical; conditions: 25 μM ATP
Chain of isolated recombinant JAK2 kinase domain (O60674 849-1124): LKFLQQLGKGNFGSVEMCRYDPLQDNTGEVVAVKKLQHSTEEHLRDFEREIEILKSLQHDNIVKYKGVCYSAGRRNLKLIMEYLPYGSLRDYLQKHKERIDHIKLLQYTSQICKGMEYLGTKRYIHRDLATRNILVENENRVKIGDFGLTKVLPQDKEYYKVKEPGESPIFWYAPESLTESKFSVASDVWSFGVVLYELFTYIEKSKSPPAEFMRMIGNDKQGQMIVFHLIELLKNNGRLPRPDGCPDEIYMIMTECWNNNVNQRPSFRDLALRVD

Chain of isolated recombinant JAK1 kinase domain (P23458 875-1153): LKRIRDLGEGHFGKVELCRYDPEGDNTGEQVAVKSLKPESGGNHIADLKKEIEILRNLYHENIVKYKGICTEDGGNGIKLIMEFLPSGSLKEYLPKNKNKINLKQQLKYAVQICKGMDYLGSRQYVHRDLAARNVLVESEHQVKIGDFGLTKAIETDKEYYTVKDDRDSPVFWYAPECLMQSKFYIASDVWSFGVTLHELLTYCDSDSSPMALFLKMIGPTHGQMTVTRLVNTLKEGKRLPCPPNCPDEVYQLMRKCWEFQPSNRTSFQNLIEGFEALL

## Nc1nn2cccnc2c1C(=O)Nc1cn(C2CCN(CCCC(=O)NCc3ccccc3)CC2)nc1-c1cc(Cl)ccc1OC(F)F [Example 167, 2-amino-N-[1-[1-[4-(benzylamino)-4-oxo-butyl]-4-piperidyl]-3-[5-chloro-2-(difluoromethoxy)phenyl]pyrazol-4-yl]pyrazolo[1,5-a]pyrimidine-3-carboxamide]
[1]
  Ki: 0.53 nM
[2]
  EC50: 19.7 nM
[3]
  Ki: 0.18 nM

## O=C(Nc1cn(CC(=O)N2C[C@H]3CN(CCc4ccccc4)C[C@H]3C2)nc1-c1cc(Cl)ccc1OC(F)F)c1cnn2cccnc12 [Example 13, N-[1-[2-[(3aS,6aR)-2-(2-phenylethyl)-1,3,3a,4,6,6a-hexahydropyrrolo[3,4-c]pyrrol-5-yl]-2-oxo-ethyl]-3-[5-chloro-2-(difluoromethoxy)phenyl]pyrazol-4-yl]pyrazolo[1,5-a]pyrimidine-3-carboxamide]
[1]
  Ki: 0.73 nM
[2]
  EC50: 22 nM
[3]
  Ki: 0.66 nM

## CS(=O)(=O)CCCN1C[C@@H]2CN(C(=O)Cn3cc(NC(=O)c4cnn5cccnc45)c(-c4cc(Cl)ccc4OC(F)F)n3)C[C@@H]2C1 [Example 27, N-[1-[2-[(3aS,6aR)-2-(3-methylsulfonylpropyl)-1,3,3a,4,6,6a-hexahydropyrrolo[3,4-c]pyrrol-5-yl]-2-oxo-ethyl]-3-[5-chloro-2-(difluoromethoxy)phenyl]pyrazol-4-yl]pyrazolo[1,5-a]pyrimidine-3-carboxamide]
[1]
  Ki: 0.46 nM
[2]
  EC50: 144 nM
[3]
  Ki: 0.55 nM

## Nc1nn2cccnc2c1C(=O)Nc1cn(CC(=O)N2CCNCC2)nc1-c1cc(Cl)ccc1OC(F)F [Example 249, 2-amino-N-[3-[5-chloro-2-(difluoromethoxy)phenyl]-1-(2-oxo-2-piperazin-1-yl-ethyl)pyrazol-4-yl]pyrazolo[1,5-a]pyrimidine-3-carboxamide]
[1]
  Ki: 0.73 nM
[2]
  EC50: 32.3 nM
[3]
  Ki: 0.44 nM

## CN1CCCC(n2cc(NC(=O)c3c(N)nn4cccnc34)c(-c3cc(Cl)ccc3OC(F)F)n2)CC1 (stereo not drawn) [Example 172, 2-amino-N-[3-[5-chloro-2-(difluoromethoxy)phenyl]-1-(1-methylazepan-4-yl)pyrazol-4-yl]pyrazolo[1,5-a]pyrimidine-3-carboxamide]
[1]
  Ki: 0.88 nM
[2]
  EC50: 15.9 nM
[3]
  Ki: 0.15 nM

## CN(CC(F)(F)F)C1CCN(C(=O)c2ccc(-n3cc(NC(=O)c4cnn5cccnc45)c(-c4cc(Cl)ccc4OC(F)F)n3)cc2)CC1 [Example 303, N-[3-[5-chloro-2-(difluoromethoxy)phenyl]-1-[4-[4-[methyl(2,2,2-trifluoroethyl)amino]piperidine-1-carbonyl]phenyl]pyrazol-4-yl]pyrazolo[1,5-a]pyrimidine-3-carboxamide]
[1]
  Ki: 1.9 nM
[2]
  EC50: 78.4 nM
[3]
  Ki: 3.28 nM

## CN(CCc1ccc(O)cc1)C1CCN(C(=O)Cn2cc(NC(=O)c3cnn4cccnc34)c(-c3cc(Cl)ccc3OC(F)F)n2)CC1 [Example 90, N-[3-[5-chloro-2-(difluoromethoxy)phenyl]-1-[2-[4-[2-(4-hydroxyphenyl)ethyl-methyl-amino]-1-piperidyl]-2-oxo-ethyl]pyrazol-4-yl]pyrazolo[1,5-a]pyrimidine-3-carboxamide]
[1]
  Ki: 0.95 nM
[2]
  EC50: 23.3 nM
[3]
  Ki: 1.31 nM

## CN(CC1(C)COC1)C1CCN(C(=O)Cn2cc(NC(=O)c3cnn4cccnc34)c(-c3cc(Cl)ccc3OC(F)F)n2)CC1 [Example 96, N-[3-[5-chloro-2-(difluoromethoxy)phenyl]-1-[2-[4-[methyl-[(3-methyloxetan-3-yl)methyl]amino]-1-piperidyl]-2-oxo-ethyl]pyrazol-4-yl]pyrazolo[1,5-a]pyrimidine-3-carboxamide]
[1]
  Ki: 0.63 nM
[2]
  EC50: 4.1 nM
[3]
  Ki: 1.4 nM

## CCCCN(C)CC#Cc1nc(-c2cc(Cl)ccc2OC(F)F)c(NC(=O)c2cnn3cccnc23)s1 [Example 210, N-[2-[3-[butyl(methyl)amino]prop-1-ynyl]-4-[5-chloro-2-(difluoromethoxy)phenyl]thiazol-5-yl]pyrazolo[1,5-a]pyrimidine-3-carboxamide]
[1]
  Ki: 0.16 nM
[2]
  EC50: 240 nM
[3]
  Ki: 0.1 nM

## CCNC(=O)CCCN1CCC(n2cc(NC(=O)c3cnn4cccnc34)c(-c3cc(Cl)ccc3OC(F)F)n2)CC1 [Example 156, N-[3-[5-chloro-2-(difluoromethoxy)phenyl]-1-[1-[4-(ethylamino)-4-oxo-butyl]-4-piperidyl]pyrazol-4-yl]pyrazolo[1,5-a]pyrimidine-3-carboxamide]
[1]
  Ki: 1.53 nM
[2]
  EC50: 31.8 nM
[3]
  Ki: 0.19 nM

## CN(CCCC(N)=O)C1CCN(c2nc(-c3cc(Cl)ccc3OC(F)F)c(NC(=O)c3cnn4cccnc34)s2)CC1 [Example 193, N-[2-[4-[(4-amino-4-oxo-butyl)-methyl-amino]-1-piperidyl]-4-[5-chloro-2-(difluoromethoxy)phenyl]thiazol-5-yl]pyrazolo[1,5-a]pyrimidine-3-carboxamide]
[1]
  Ki: 2.23 nM
[2]
  EC50: 23.5 nM
[3]
  Ki: 1.46 nM

## O=C(Nc1cn(CC(=O)N2C[C@H]3CN(CC4(O)CCCCC4)C[C@H]3C2)nc1-c1cc(Cl)ccc1OC(F)F)c1cnn2cccnc12 [Example 46, N-[1-[2-[(3aS,6aR)-2-[(1-hydroxycyclohexyl)methyl]-1,3,3a,4,6,6a-hexahydropyrrolo[3,4-c]pyrrol-5-yl]-2-oxo-ethyl]-3-[5-chloro-2-(difluoromethoxy)phenyl]pyrazol-4-yl]pyrazolo[1,5-a]pyrimidine-3-carboxamide]
[1]
  Ki: 0.58 nM
[2]
  EC50: 8.2 nM
[3]
  Ki: 0.7 nM

## Cc1ccc(CN(C)C2CCN(C(=O)Cn3cc(NC(=O)c4cnn5cccnc45)c(-c4cc(Cl)ccc4OC(F)F)n3)CC2)c(C)c1 [Example 129, N-[3-[5-chloro-2-(difluoromethoxy)phenyl]-1-[2-[4-[(2,4-dimethylphenyl)methyl-methyl-amino]-1-piperidyl]-2-oxo-ethyl]pyrazol-4-yl]pyrazolo[1,5-a]pyrimidine-3-carboxamide]
[1]
  Ki: 1.14 nM
[2]
  EC50: 14.2 nM
[3]
  Ki: 3.33 nM

## O=C(Nc1sc(N2CCC(N3CC(F)(F)C3)CC2)nc1-c1cc(Cl)ccc1OC(F)F)c1cnn2cccnc12 [Example 196, N-[4-[5-chloro-2-(difluoromethoxy)phenyl]-2-[4-(3,3-difluoroazetidin-1-yl)-1-piperidyl]thiazol-5-yl]pyrazolo[1,5-a]pyrimidine-3-carboxamide]
[1]
  Ki: 1.74 nM
[2]
  EC50: 17.4 nM
[3]
  Ki: 1.05 nM

## CCCCN(CCOc1ccc(C)cc1)C1CCN(C(=O)Cn2cc(NC(=O)c3cnn4cccnc34)c(-c3cc(Cl)ccc3OC(F)F)n2)CC1 [Example 108, N-[1-[2-[4-[butyl-[2-(4-methylphenoxy)ethyl]amino]-1-piperidyl]-2-oxo-ethyl]-3-[5-chloro-2-(difluoromethoxy)phenyl]pyrazol-4-yl]pyrazolo[1,5-a]pyrimidine-3-carboxamide]
[1]
  Ki: 2.47 nM
[2]
  EC50: 43.1 nM
[3]
  Ki: 3.66 nM

## O=C(Nc1cn(CC(=O)N2CCC3(CCN(CC4CCN(C(=O)OCc5ccccc5)CC4)C3)CC2)nc1-c1cc(Cl)ccc1OC(F)F)c1cnn2cccnc12 [Example 226, benzyl 4-[[8-[2-[3-[5-chloro-2-(difluoromethoxy)phenyl]-4-(pyrazolo[1,5-a]pyrimidine-3-carbonylamino)pyrazol-1-yl]acetyl]-2,8-diazaspiro[4.5]decan-2-yl]methyl]piperidine-1-carboxylate]
[1]
  Ki: 0.41 nM
[2]
  EC50: 41.5 nM
[3]
  Ki: 1.11 nM

## Nc1nn2cccnc2c1C(=O)Nc1cn(CC(=O)N2CCC(N3CC[C@H](O)C3)CC2)nc1-c1cc(Cl)ccc1OC(F)F [Example 77, 2-amino-N-[3-[5-chloro-2-(difluoromethoxy)phenyl]-1-[2-[4-[(3S)-3-hydroxypyrrolidin-1-yl]-1-piperidyl]-2-oxo-ethyl]pyrazol-4-yl]pyrazolo[1,5-a]pyrimidine-3-carboxamide]
[1]
  Ki: 0.6 nM
[2]
  EC50: 210 nM
[3]
  Ki: 0.51 nM

## CN(CCc1ccc(C(F)(F)F)cc1)C1CCN(C(=O)Cn2cc(NC(=O)c3cnn4cccnc34)c(-c3cc(Cl)ccc3OC(F)F)n2)CC1 [Example 97, N-[3-[5-chloro-2-(difluoromethoxy)phenyl]-1-[2-[4-[methyl-[2-[4-(trifluoromethyl)phenyl]ethyl]amino]-1-piperidyl]-2-oxo-ethyl]pyrazol-4-yl]pyrazolo[1,5-a]pyrimidine-3-carboxamide]
[1]
  Ki: 1.16 nM
[2]
  EC50: 187 nM
[3]
  Ki: 1.97 nM
